Reference: PMC9516332 (Frontiers in Oncology, 2022)
Where two headings read alike, the source gives them in different places.

Key:
Test in all cases: Kinase panel profiling at 1 µmol/L (MSA or IMAP), percentage inhibition
Assay type in all cases: biochemical
[1] = biological target: T1, panel of 255 wild-type kinases (Homo sapiens, UniProt P51813); details: read-out: %-inhibition BMX
T1 sequence (P51813 1-675): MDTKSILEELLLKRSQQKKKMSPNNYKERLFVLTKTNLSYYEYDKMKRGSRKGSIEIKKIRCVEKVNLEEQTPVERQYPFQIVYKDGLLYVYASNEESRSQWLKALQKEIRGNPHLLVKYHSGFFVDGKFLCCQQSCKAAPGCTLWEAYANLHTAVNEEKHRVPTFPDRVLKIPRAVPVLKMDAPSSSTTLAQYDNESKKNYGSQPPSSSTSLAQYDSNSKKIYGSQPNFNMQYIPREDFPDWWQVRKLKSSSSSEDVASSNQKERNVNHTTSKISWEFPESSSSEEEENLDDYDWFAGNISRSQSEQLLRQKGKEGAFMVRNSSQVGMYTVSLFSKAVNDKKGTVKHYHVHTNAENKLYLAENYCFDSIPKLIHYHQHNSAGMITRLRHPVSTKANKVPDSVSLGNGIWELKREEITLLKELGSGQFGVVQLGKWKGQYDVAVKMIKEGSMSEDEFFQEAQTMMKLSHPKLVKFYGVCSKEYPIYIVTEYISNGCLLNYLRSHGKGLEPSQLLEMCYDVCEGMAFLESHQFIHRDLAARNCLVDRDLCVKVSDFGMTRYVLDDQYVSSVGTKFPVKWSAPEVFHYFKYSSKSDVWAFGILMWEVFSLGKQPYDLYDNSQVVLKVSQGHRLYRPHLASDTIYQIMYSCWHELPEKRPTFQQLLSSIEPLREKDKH

[2] = biological target: panel of 255 wild-type kinases (Homo sapiens, UniProt Q04912); details: read-out: %-inhibition at 1 µmol/L, RON
[3] = biological target: T2, panel of 255 wild-type kinases (Homo sapiens, UniProt Q12866); details: read-out: %-inhibition, MER
T2 sequence (Q12866 21-999): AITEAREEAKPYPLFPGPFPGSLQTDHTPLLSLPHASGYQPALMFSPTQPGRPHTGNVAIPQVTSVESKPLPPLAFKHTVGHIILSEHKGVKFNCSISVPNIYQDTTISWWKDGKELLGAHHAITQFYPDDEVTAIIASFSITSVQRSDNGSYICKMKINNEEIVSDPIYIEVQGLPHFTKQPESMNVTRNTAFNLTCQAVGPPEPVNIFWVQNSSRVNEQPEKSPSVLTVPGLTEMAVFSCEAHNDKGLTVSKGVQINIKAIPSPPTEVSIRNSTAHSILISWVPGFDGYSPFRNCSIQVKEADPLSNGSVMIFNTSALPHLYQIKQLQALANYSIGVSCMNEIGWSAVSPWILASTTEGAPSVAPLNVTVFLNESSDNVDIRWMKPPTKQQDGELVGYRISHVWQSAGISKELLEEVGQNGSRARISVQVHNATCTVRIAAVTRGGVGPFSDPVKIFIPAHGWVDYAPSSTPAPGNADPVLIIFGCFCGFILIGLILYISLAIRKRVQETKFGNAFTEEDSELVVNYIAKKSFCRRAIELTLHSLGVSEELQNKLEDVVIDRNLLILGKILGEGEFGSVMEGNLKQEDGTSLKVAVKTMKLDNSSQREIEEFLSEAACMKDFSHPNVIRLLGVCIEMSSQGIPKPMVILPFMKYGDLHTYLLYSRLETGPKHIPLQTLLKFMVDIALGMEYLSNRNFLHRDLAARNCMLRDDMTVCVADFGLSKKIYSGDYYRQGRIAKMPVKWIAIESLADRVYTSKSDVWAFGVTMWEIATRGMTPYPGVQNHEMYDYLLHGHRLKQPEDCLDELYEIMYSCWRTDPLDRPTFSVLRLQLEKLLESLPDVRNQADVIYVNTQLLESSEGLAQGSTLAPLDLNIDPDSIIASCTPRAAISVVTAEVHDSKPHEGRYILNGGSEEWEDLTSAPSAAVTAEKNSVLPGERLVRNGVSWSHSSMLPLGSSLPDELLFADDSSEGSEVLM

[4] = biological target: panel of 255 wild-type kinases (Homo sapiens, UniProt Q9P1W9); details: read-out: %-inhibition at 1 µmol/L, PIM2
[5] = biological target: panel of 255 wild-type kinases (Homo sapiens, UniProt P42684); details: read-out: %-inhibition ARG
[6] = biological target: panel of 255 wild-type kinases (Homo sapiens, UniProt P11309); details: read-out: %-inhibition at 1 µmol/L, PIM1
[7] = BMX kinase assay, 1 µmol/L single concentration
[8] = kinase RON, 1 µmol/L single concentration
[9] = MER, 1 µmol/L single concentration
[10] = kinase PIM2, 1 µmol/L single concentration
[11] = ARG kinase assay, 1 µmol/L single concentration
[12] = kinase PIM1, 1 µmol/L single concentration

Structure (SMILES) | inhibition at 1 µM [1, 7] | inhibition at 1 µM [2, 8] | inhibition at 1 µM [3, 9] | inhibition at 1 µM [4, 10] | inhibition at 1 µM [5, 11] | inhibition at 1 µM [6, 12] | inhibition at 1 µM [1] | inhibition at 1 µM [2] | inhibition at 1 µM [3] | inhibition at 1 µM [4] | inhibition at 1 µM [5] | inhibition at 1 µM [6]
Cc1nc(NC(=O)N2CCC[C@H]2C(N)=O)sc1-c1ccnc(C(C)(C)C(F)(F)F)c1 [alpelisib] | 0.476% | 7% | -3.44% | -6.4% | 3.28% | 4% |  |  |  |  |  | 
Cn1cc(-c2cc3c(N4CCN(c5ncc([C@@](C)(N)c6ccc(F)cc6)cn5)CC4)ncnn3c2)cn1 [avapritinib] | 21% | 48% | 17% | -2.22% | 47% | 24% |  |  |  |  |  | 
Cn1cnc2c(F)c(Nc3ccc(Br)cc3F)c(C(=O)NOCCO)cc21 [binimetinib] | 4% | -3.72% | -2.19% | -6.4% | 1.39% | -16% |  |  |  |  |  | 
CNC(=O)c1ccc(-c2cnc3ncc(Cc4ccc5ncccc5c4)n3n2)cc1F [capmatinib] |  |  |  |  |  |  | 4.33% | 13% | 13% | -4.65% | 3.29% | -9%
COc1cc2ncnc(Nc3ccc(F)c(Cl)c3)c2cc1NC(=O)/C=C/CN1CCCCC1 [dacomitinib] | 12% | 5% | 19% | -3% | 40% | 32% |  |  |  |  |  | 
C[C@H](Nc1ncnc2nc[nH]c12)c1cc2cccc(Cl)c2c(=O)n1-c1ccccc1 [duvelisib] | 1.46% | 8% | -1% | -6.49% | 0.877% | -0.908% |  |  |  |  |  | 
COC(=O)N[C@@H](C)CNc1nccc(-c2cn(C(C)C)nc2-c2cc(Cl)cc(NS(C)(=O)=O)c2F)n1 [encorafenib] | 8% | -1.42% | 0.281% | -1.43% | 1.69% | 10% |  |  |  |  |  | 
CN1CCN(c2ccc(C(=O)Nc3n[nH]c4ccc(Cc5cc(F)cc(F)c5)cc34)c(NC3CCOCC3)c2)CC1 [entrectinib] | 99% | 33% | 61% | -7.56% | 83% | -6% |  |  |  |  |  | 
CCc1nc(C(N)=O)c(Nc2ccc(N3CCC(N4CCN(C)CC4)CC3)c(OC)c2)nc1NC1CCOCC1 [gilteritinib] | 60% | 98% |  | -1.37% | 61% | 6% |  |  | 100% |  |  | 
CCN1CCN(c2ccc(Nc3cc(N(C)C(=O)Nc4c(Cl)c(OC)cc(OC)c4Cl)ncn3)cc2)CC1 [infigratinib] | 0.836% | 0.707% | 15% | -7% | 24% | -2.33% |  |  |  |  |  | 
O=C(Nc1cnn2ccc(N3CCC[C@@H]3c3cc(F)ccc3F)nc12)N1CC[C@H](O)C1 [larotrectinib] | 21% | 2.82% | 6% | -6.57% | -0.835% | -5.32% |  |  |  |  |  | 
C[C@H]1Oc2cc(cnc2N)-c2c(nn(C)c2C#N)CN(C)C(=O)c2ccc(F)cc21 [lorlatinib] | 4% | 11% | 11% | -3.36% | 1.49% | 8% |  |  |  |  |  | 
CCN1C(=O)N(c2c(F)c(OC)cc(OC)c2F)Cc2cnc3[nH]c(CN4CCOCC4)cc3c21 [pemigatinib] | 1.44% | 4.48% | 7% | -6% | 7% | -7% |  |  |  |  |  | 
FC(F)(F)c1ccc(CNc2ccc(Cc3c[nH]c4ncc(Cl)cc34)cn2)cn1 [pexidartinib] | -0.565% | 23% | 54% | -2.72% | 7% | -3.77% |  |  |  |  |  | 
CO[C@]1(C(=O)N[C@@H](C)c2ccc(-n3cc(F)cn3)nc2)CC[C@H](c2nc(C)cc(Nc3cc(C)[nH]n3)n2)CC1 [pralsetinib] | 82% | 2.6% | 79% | -4% | 38% | -1.53% |  |  |  |  |  | 
CCn1c(=O)c(-c2cc(NC(=O)Nc3ccccc3)c(F)cc2Br)cc2cnc(NC)cc21 [ripretinib] | 60% | 1.39% | -11% | -3% | 56% | -5% |  |  |  |  |  | 
COc1ccc(CN2C3CC2CN(c2ccc(-c4cc(OCC(C)(C)O)cn5ncc(C#N)c45)cn2)C3)cn1 [selpercatinib] | 12% | 49% | 88% | -6% | 10% | -5.68% |  |  |  |  |  | 
Cn1cnc2c(F)c(Nc3ccc(Br)cc3Cl)c(C(=O)NOCCO)cc21 [selumetinib] | 2.24% | -1.28% | 11% | -3.45% | 1.6% | -6% |  |  |  |  |  | 
Cc1cc(Nc2ncnc3ccc(NC4=NC(C)(C)CO4)cc23)ccc1Oc1ccn2ncnc2c1 [tucatinib] | 6.62% | 2.23% | 12% | -3.72% | 3.73% | -3.59% |  |  |  |  |  | 
C=CC(=O)N1CCC([C@@H]2CCNc3c(C(N)=O)c(-c4ccc(Oc5ccccc5)cc4)nn32)CC1 [zanubrutinib] |  | 5% | 6% | -7% | -3.68% | -11% |  |  |  |  |  | 
